Assay results: PMC8269107, “Lipidation of Temporin-1CEb Derivatives as a Tool for Activity Improvement, Pros and Cons of the Approach” (International Journal of Molecular Sciences, 2021)
Values after ≈ are worked out from the molar mass of the structure shown. Where a SMILES comes first, the peptide text is derived from it. [ ]: non-standard residue; d: D form. The star is where a group is joined. Palmitoyl = CCCCCCCCCCCCCCCC(=O)*; Lauroyl = CCCCCCCCCCCC(=O)*; Pentanoyl = CCCCC(=O)*; AEEA = NCCOCCOCC(=O)O; Ahx = NCCCCCC(=O)O; βAla = NCCC(=O)O

Columns and labels:
B. cereus PCM 482 = assay: MIC, broth microdilution; assay type: cell-based, Bacillus cereus; conditions: B. cereus PCM 482, 24 h
From the text: (§1) Escherichia coli (PCM 2057 = ATCC 25922), Staphylococcus aureus (PCM 2054 = ATCC 25923), Staphylococcus epidermidis (PCM 2118 = ATCC 14990), Bacillus subtilis (PCM 2224 = ATCC 9799), Bacillus cereus (PCM 482 = ATCC 10702) and Pseudomonas aeruginosa (PCM 499 = ATCC 10145) were obtained from the Polish Collection of Microorganisms. Fungi strains Candida albicans (CCM 8186 = CNTC 49/64), Candida glabrata (CCM 8270 = ATCC 90030), Candida parapsilosis (CCM 8260 = ATCC 22019) and Candida krusei (CCM 8271 = ATCC 6258) were acquired from the Czech Collection of Microorganisms. S. aureus USA300 (wild type strain), the reference strain of Klebsiella pneumoniae (ATCC 13883) and clinical isolates of Pseudomonas aeruginosa (PA1, PA2) collected from nonrelated patients admitted to the Stefan Zeromski Specialist Municipal Hospital in Krakow (Poland) were kindly provided by the research group of the Department of Microbiology, Faculty of Biochemistry, Biophysics and Biotechnology, Jagiellonian University, Krakow, Poland.
(§2) Luria-Bertani broth (LB) and Sabouraud Dextrose broth (SB) (Biocorp, Poland) were used for cultivation of bacteria and fungi strains, respectively. The antimicrobial activity of the peptides were analyzed through determination of MIC (minimal inhibitory concentration) parameters according to Clinical and Laboratory Standards (CLSI) guidelines developed for aerobic bacteria and yeasts, respectively. Mueller-Hinton broth (MHB) was used as the working medium for all bacterial strains, while in the case of fungi, RPMI-1640 (with L-glutamine, without sodium bicarbonate) growth medium buffered with MOPS (morpholinepropanesulfonic acid) and supplemented with 2% glucose was used. Inoculum was prepared from freshly grown cultures of microorganisms at their exponential phase of growth. […] Plates were then incubated for 24 h at 37 °C in the case of bacteria and at 35 °C in the case of fungi. After that time, absorbance was read at 590 nm with a Perkin Elmer plate reader. Cultures without peptide were treated as positive control, while uninoculated media were defined as negative control. All measurements were run at least in triplicate.

primary fibroblasts = assay: Cytotoxicity, MTT assay; assay type: cell-based, human; conditions: 24 h; for effect on cell viability (in words): fibroblasts, 1 to 50 µg/mL
Description: (§3) Human dermal fibroblasts were obtained as previously reported from biopsies of healthy human skin of three donors undergoing a surgery. All procedures were approved by the Ethics Committee of Medicinal University of Gdansk (NKEBN/483/2011 and NKBBN/745/2019-2020). Immortalized human HaCaT keratinocytes (DKFZ Heidelberg, Germany) were obtained commercially.
(§4) Both types of cell lines were grown in Dulbecco′s Modified Eagle′s Medium (DMEM) (Sigma-Aldrich, Germany), containing […] of glucose, […] of L- glutamine, sodium pyruvate and sodium bicarbonate. Additionally, the medium was supplemented with 10% FCS (fetal calf serum, Sigma-Aldrich, Germany), 100 U/mL of penicillin and 100 μg/mL of streptomycin (Sigma-Aldrich, Germany). The cells were grown in standard culture dishes (BD, USA) in a humidified atmosphere with 5% CO2 at […], and the medium was changed every 2 days.
(§5) The fibroblasts and keratinocytes were seeded at density of 5500 cells per well into 96-well plates suspended in a medium supplemented with 10% FCS. After 24 h from seeding, the media were exchanged with serum- and antibiotic-free DMEM and tested peptides, dissolved in sterile water, which were added, yielding a final concentration ranging from 1 to 50 μg/mL. The cells were then incubated for the next 24 h. At the end of the experiment, the cells were treated with 20 μL of MTT (5 mg/mL in PBS). After 3 h of incubation in the presence of MTT dye, the DMEM medium was discarded and replaced with 6 mM HCl in isopropanol. When the purple crystals of formazan were fully solubilized, absorbance at 570 nm was read.

keratinocytes (HaCaT) = assay: Cytotoxicity, MTT assay; assay type: cell-based, human; conditions: 24 h; for effect on cell viability (in words): keratinocytes, 1 to 50 µg/mL
Description: as §3, §4, §5

C.albicans CCM 8186 = assay: MIC, broth microdilution; assay type: cell-based, Candida albicans; conditions: for MIC100: C.albicans CCM 8186, 24 h
From the text: as §1, §2

[1] = system: C. albicans (CCM 8186) biofilm; assay: Biofilm eradication assay, pre-formed 24 h old biofilm (MTT); assay type: cell-based, Candida albicans; conditions: C. albicans pre-formed 24 h old biofilm, 24 h treatment
Description: In the case of yeasts, the overnight culture of C. albicans in Sabouraud dextrose broth (SB) was used for inoculum preparation. Similar to above, 5 mL of 24 h culture was centrifuged, washed with PBS and then suspended in sterile RPMI-1640 medium (with L-glutamine, without sodium bicarbonate) supplemented with 2% glucose (RPMI-1640/+G) yielding the amount of about 1 × 10^7 cells per ml. Subsequently, 200 µL of yeast suspension was transferred into each well of a microtiter plate, and it was incubated stationary for the next 24 h at 35 °C.
After that, each well of the plates containing bacterial or fungi biofilm was washed three times with PBS in order to remove all non-adherent cells. Then, peptide solutions of 200 µL ranging from 50 to 0,39 µg/mL prepared in TSB +/G in the case of experiments on S. aureus biofilm, and (RPMI-1640/+G) in the case of C. alibcans, were prepared and transferred into the microtiter plates. After the addition of the peptides, the experiments were continued for the next 24 h.
The reduction in biofilm viability was analyzed by means of MTT assay. Briefly, 20 μL of MTT solution (5 mg/mL in PBS) was added to prewashed wells with exchanged medium (180 μL of fresh medium) wells containing bacterial/yeast biofilms. Plates were then incubated in the dark for the next 3 h at 37 °C. After that time, the medium was replaced with 6 mM HCl in isopropanol and, when the reduced MTT was fully dissolved, the plates were read at 570 nm. Activity against fully developed 24 h old biofilm was described as biofilm eradication concentration (BEC50 expressed in µg/mL), which corresponded to the concentration of the compound able to reduce 50% of biofilm viability compared with the growth control.

CCCCCCCCCCCCCCCC(=O)NCCC(=O)N[C@@H](Cc1c[nH]cn1)C(=O)NCCOCCOCC(=O)N[C@H](C(=O)N[C@@H](CCCCN)C(=O)N[C@@H](CCCCN)C(=O)N[C@H](C(=O)N[C@@H](CC(C)C)C(=O)N[C@@H](CO)C(=O)N[C@@H](CCCCN)C(=O)N[C@H](C(=O)N[C@@H](CCCCN)C(=O)N[C@@H](CCCCN)C(=O)N[C@@H](CC(C)C)C(=O)N[C@@H](CC(C)C)C(N)=O)[C@@H](C)CC)[C@@H](C)CC)[C@@H](C)CC [C16-CAR-PEG-DK5] ({Palmitoyl-βAla}-H[AEEA]IKKILSKIKKLL-NH2)
MIC100 (B. cereus PCM 482): >50 µg/mL | IC50 (primary fibroblasts; primary Fibroblasts, MTT): 4 µg/mL (≈ 1.98 µM) | IC50 (keratinocytes (HaCaT); Keratinocytes (HaCaT), MTT): 1 µg/mL (≈ 0.496 µM) | MIC100 (C.albicans CCM 8186): 25 µg/mL (≈ 12.4 µM) | BEC50 [1]: 15 µg/mL

CCCCC(=O)N[C@H](C(=O)N[C@@H](CCCCN)C(=O)N[C@@H](CCCCN)C(=O)N[C@H](C(=O)N[C@@H](CC(C)C)C(=O)N[C@@H](CO)C(=O)N[C@@H](CCCCN)C(=O)N[C@H](C(=O)N[C@@H](CCCCN)C(=O)N[C@@H](CCCCN)C(=O)N[C@@H](CC(C)C)C(=O)N[C@@H](CC(C)C)C(N)=O)[C@@H](C)CC)[C@@H](C)CC)[C@@H](C)CC [Compound C5-DK5] (Pentanoyl-IKKILSKIKKLL-NH2)
MIC100 (B. cereus PCM 482): 12.5 µg/mL (≈ 8.29 µM) | effect on cell viability (in words) (primary fibroblasts; MTT): moderately toxic | IC50 (primary fibroblasts; primary Fibroblasts, MTT): 20 µg/mL (≈ 13.3 µM) | IC50 (keratinocytes (HaCaT); Keratinocytes (HaCaT), MTT): 35 µg/mL (≈ 23.2 µM) | effect on cell viability (in words) (keratinocytes (HaCaT); MTT): moderately toxic | MIC100 (C.albicans CCM 8186): 6.25 µg/mL (≈ 4.14 µM) | BEC50 [1]: 12.5 µg/mL

CC[C@H](C)[C@H](NC(=O)COCCOCCNC(=O)[C@H](Cc1c[nH]cn1)NC(=O)CCNC(=O)CCCCCN)C(=O)N[C@@H](CCCCN)C(=O)N[C@@H](CCCCN)C(=O)N[C@H](C(=O)N[C@@H](CC(C)C)C(=O)N[C@@H](CO)C(=O)N[C@@H](CCCCN)C(=O)N[C@H](C(=O)N[C@@H](CCCCN)C(=O)N[C@@H](CCCCN)C(=O)N[C@@H](CC(C)C)C(=O)N[C@@H](CC(C)C)C(N)=O)[C@@H](C)CC)[C@@H](C)CC [AHX-CAR-PEG-DK5] (H-[Ahx][βAla]H[AEEA]IKKILSKIKKLL-NH2)
MIC100 (B. cereus PCM 482): >50 µg/mL | effect on cell viability (in words) (primary fibroblasts; MTT): neutral or even pro-proliferative | IC50 (primary fibroblasts; primary Fibroblasts, MTT): >50 µg/mL | IC50 (keratinocytes (HaCaT); Keratinocytes (HaCaT), MTT): >50 µg/mL | effect on cell viability (in words) (keratinocytes (HaCaT); MTT): neutral or even pro-proliferative | MIC100 (C.albicans CCM 8186): >50 µg/mL | BEC50 [1]: 20 µg/mL

CC[C@H](C)[C@H](NC(=O)CCCCCN)C(=O)N[C@@H](CCCCN)C(=O)N[C@@H](CCCCN)C(=O)N[C@H](C(=O)N[C@@H](CC(C)C)C(=O)N[C@@H](CO)C(=O)N[C@@H](CCCCN)C(=O)N[C@H](C(=O)N[C@@H](CCCCN)C(=O)N[C@@H](CCCCN)C(=O)N[C@@H](CC(C)C)C(=O)N[C@@H](CC(C)C)C(N)=O)[C@@H](C)CC)[C@@H](C)CC [AHX-DK5] (H-[Ahx]IKKILSKIKKLL-NH2)
MIC100 (B. cereus PCM 482): 50 µg/mL (≈ 32.5 µM) | effect on cell viability (in words) (primary fibroblasts; MTT): moderately toxic | IC50 (primary fibroblasts; primary Fibroblasts, MTT): 50 µg/mL (≈ 32.5 µM) | IC50 (keratinocytes (HaCaT); Keratinocytes (HaCaT), MTT): >50 µg/mL | effect on cell viability (in words) (keratinocytes (HaCaT); MTT): moderately toxic | MIC100 (C.albicans CCM 8186): 12.5 µg/mL (≈ 8.13 µM) | BEC50 [1]: 25 µg/mL

CCCCC(=O)NCCC(=O)N[C@@H](Cc1c[nH]cn1)C(=O)NCCOCCOCC(=O)N[C@H](C(=O)N[C@@H](CCCCN)C(=O)N[C@@H](CCCCN)C(=O)N[C@H](C(=O)N[C@@H](CC(C)C)C(=O)N[C@@H](CO)C(=O)N[C@@H](CCCCN)C(=O)N[C@H](C(=O)N[C@@H](CCCCN)C(=O)N[C@@H](CCCCN)C(=O)N[C@@H](CC(C)C)C(=O)N[C@@H](CC(C)C)C(N)=O)[C@@H](C)CC)[C@@H](C)CC)[C@@H](C)CC [C5-CAR-PEG-DK5] ({Pentanoyl-βAla}-H[AEEA]IKKILSKIKKLL-NH2)
MIC100 (B. cereus PCM 482): >50 µg/mL | effect on cell viability (in words) (primary fibroblasts; MTT): neutral or even pro-proliferative | IC50 (primary fibroblasts; primary Fibroblasts, MTT): >50 µg/mL | IC50 (keratinocytes (HaCaT); Keratinocytes (HaCaT), MTT): >50 µg/mL | effect on cell viability (in words) (keratinocytes (HaCaT); MTT): neutral or even pro-proliferative | MIC100 (C.albicans CCM 8186): >50 µg/mL | BEC50 [1]: 20 µg/mL

CC[C@H](C)[C@H](NC(=O)COCCOCCNC(=O)[C@H](Cc1c[nH]cn1)NC(=O)CCN)C(=O)N[C@@H](CCCCN)C(=O)N[C@@H](CCCCN)C(=O)N[C@H](C(=O)N[C@@H](CC(C)C)C(=O)N[C@@H](CO)C(=O)N[C@@H](CCCCN)C(=O)N[C@H](C(=O)N[C@@H](CCCCN)C(=O)N[C@@H](CCCCN)C(=O)N[C@@H](CC(C)C)C(=O)N[C@@H](CC(C)C)C(N)=O)[C@@H](C)CC)[C@@H](C)CC [CAR-PEG-DK5] (H-[βAla]H[AEEA]IKKILSKIKKLL-NH2; N-terminus and C-terminus assumed)
MIC100 (B. cereus PCM 482): >50 µg/mL | IC50 (primary fibroblasts): 35 µg/mL (≈ 19.7 µM) | IC50 (keratinocytes (HaCaT)): >50 µg/mL | MIC100 (C.albicans CCM 8186): 15.6 µg/mL (≈ 8.78 µM) | BEC50 [1]: >50 µg/mL

CCCCCCCCCCCC(=O)N[C@H](C(=O)N[C@@H](CCCCN)C(=O)N[C@@H](CCCCN)C(=O)N[C@H](C(=O)N[C@@H](CC(C)C)C(=O)N[C@@H](CO)C(=O)N[C@@H](CCCCN)C(=O)N[C@H](C(=O)N[C@@H](CCCCN)C(=O)N[C@@H](CCCCN)C(=O)N[C@@H](CC(C)C)C(=O)N[C@@H](CC(C)C)C(N)=O)[C@@H](C)CC)[C@@H](C)CC)[C@@H](C)CC [Compound C12-DK5] (Lauroyl-IKKILSKIKKLL-NH2)
MIC100 (B. cereus PCM 482): 12.5 µg/mL (≈ 7.78 µM) | IC50 (primary fibroblasts; primary Fibroblasts, MTT): 7 µg/mL (≈ 4.36 µM) | IC50 (keratinocytes (HaCaT); Keratinocytes (HaCaT), MTT): 1 µg/mL (≈ 0.623 µM) | fold improved activity in comparison to the parent DK5 (C.albicans CCM 8186; C. albicans, MIC): about 10 fold | MIC100 (C.albicans CCM 8186): 3.13 µg/mL (≈ 1.95 µM)
